Results from PMC7156458, “Synthetic biology based construction of biological activity-related library of fungal decalin-containing diterpenoid pyrones” (Nature Communications, 2020).

Biological target: Aβ42 (Homo sapiens, UniProt P05067)
Assay: Th-T (thioflavin-T) assay of Aβ42 aggregation
Type: biochemical

Chain of Aβ42 (P05067 672-713): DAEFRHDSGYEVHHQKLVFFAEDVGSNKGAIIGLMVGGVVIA

C=C1CCC2C(C)(CCC=C(C)C)C(O)CCC2(C)C1Cc1c(OC)oc(CO)c(C)c1=O (stereo not drawn) [Compound 12]
Fig. 7a Th-T reading, mean of three wells (column suffix _20, reading M101): 2.081
Fig. 7a Th-T reading, mean of three wells (column suffix _20, reading M102): 2.083
Fig. 7a Th-T reading, mean of three wells (column suffix _20, reading M103): 2.082
Fig. 7a Th-T reading, mean of three wells (column suffix _20, reading M104): 2.11
Fig. 7a Th-T reading, mean of three wells (column suffix _20, reading M105): 2.097
Fig. 7a Th-T reading, mean of three wells (column suffix _20, reading M106): 2.107
Th-T fluorescence, mean of three wells (Fig. 7a) (column suffix _50, measurement M19): 1.719
Th-T fluorescence, mean of three wells (Fig. 7a) (column suffix _50, measurement M20): 1.709
Th-T fluorescence, mean of three wells (Fig. 7a) (column suffix _50, measurement M21): 1.707
Th-T fluorescence, mean of three wells (Fig. 7a) (column suffix _50, measurement M22): 1.694
Th-T fluorescence, mean of three wells (Fig. 7a) (column suffix _50, measurement M23): 1.672
Th-T fluorescence, mean of three wells (Fig. 7a) (column suffix _50, measurement M24): 1.656
Th-T fluorescence, mean of three wells (Fig. 7a) (column suffix _50, measurement M25): 1.634
Th-T fluorescence, mean of three wells (Fig. 7a) (column suffix _50, measurement M26): 1.64
Th-T fluorescence, mean of three wells (Fig. 7a) (column suffix _50, measurement M27): 1.6183
Th-T fluorescence, mean of three wells (Fig. 7a) (column suffix _50, measurement M28): 1.623
Th-T fluorescence, mean of three wells (Fig. 7a) (column suffix _50, measurement M29): 1.606
Th-T assay signal, mean of three wells (Fig. 7a) (column suffix _50, reading M1): 1.526
Th-T assay signal, mean of three wells (Fig. 7a) (column suffix _50, reading M2): 1.765
Th-T assay signal, mean of three wells (Fig. 7a) (column suffix _50, reading M3): 2.409
Th-T assay signal, mean of three wells (Fig. 7a) (column suffix _50, reading M4): 2.663
Th-T assay signal, mean of three wells (Fig. 7a) (column suffix _50, reading M5): 2.734
Th-T assay signal, mean of three wells (Fig. 7a) (column suffix _50, reading M6): 2.555
Th-T assay signal, mean of three wells (Fig. 7a) (column suffix _50, reading M7): 2.454
Th-T assay signal, mean of three wells (Fig. 7a) (column suffix _50, reading M8): 2.181
Th-T assay signal, mean of three wells (Fig. 7a) (column suffix _50, reading M9): 2.034
Th-T assay signal, mean of three wells (Fig. 7a) (column suffix _50, reading M10): 1.99
Th-T assay signal, mean of three wells (Fig. 7a) (column suffix _50, reading M11): 1.977
Th-T assay signal, mean of three wells (Fig. 7a) (column suffix _50, reading M12): 1.8801
Th-T assay signal, mean of three wells (Fig. 7a) (column suffix _50, reading M13): 1.841
Th-T assay signal, mean of three wells (Fig. 7a) (column suffix _50, reading M14): 1.819
Th-T assay signal, mean of three wells (Fig. 7a) (column suffix _50, reading M15): 1.788
Th-T assay signal, mean of three wells (Fig. 7a) (column suffix _50, reading M16): 1.774
Th-T assay signal, mean of three wells (Fig. 7a) (column suffix _50, reading M17): 1.76
Th-T assay signal, mean of three wells (Fig. 7a) (column suffix _50, reading M18): 1.746
Fig. 7a Th-T reading, mean of three wells (column suffix _50, reading M85): 1.4
Fig. 7a Th-T reading, mean of three wells (column suffix _50, reading M86): 1.399
Fig. 7a Th-T reading, mean of three wells (column suffix _50, reading M87): 1.399
Fig. 7a Th-T reading, mean of three wells (column suffix _50, reading M88): 1.392
Fig. 7a Th-T reading, mean of three wells (column suffix _50, reading M89): 1.396
Fig. 7a Th-T reading, mean of three wells (column suffix _50, reading M90): 1.401
Fig. 7a Th-T reading, mean of three wells (column suffix _50, reading M91): 1.4
Fig. 7a Th-T reading, mean of three wells (column suffix _50, reading M92): 1.405
Fig. 7a Th-T reading, mean of three wells (column suffix _50, reading M93): 1.424
Fig. 7a Th-T reading, mean of three wells (column suffix _50, reading M94): 1.4149
Fig. 7a Th-T reading, mean of three wells (column suffix _50, reading M95): 1.419
Fig. 7a Th-T reading, mean of three wells (column suffix _50, reading M96): 1.4015
Fig. 7a Th-T reading, mean of three wells (column suffix _50, reading M97): 1.401
Fig. 7a Th-T reading, mean of three wells (column suffix _50, reading M98): 1.397
Fig. 7a Th-T reading, mean of three wells (column suffix _50, reading M99): 1.397
Fig. 7a Th-T reading, mean of three wells (column suffix _50, reading M100): 1.41
Fig. 7a Th-T reading, mean of three wells (column suffix _50, reading M101): 1.399
Fig. 7a Th-T reading, mean of three wells (column suffix _50, reading M102): 1.3937
Fig. 7a Th-T reading, mean of three wells (column suffix _50, reading M103): 1.417
Fig. 7a Th-T reading, mean of three wells (column suffix _50, reading M104): 1.419
Fig. 7a Th-T reading, mean of three wells (column suffix _50, reading M105): 1.42
Fig. 7a Th-T reading, mean of three wells (column suffix _50, reading M106): 1.412
Th-T fluorescence, mean of three wells (compound at 10, reading M41 of time course): 3.264
Th-T fluorescence, mean of three wells (compound at 10, reading M42 of time course): 3.266
Th-T fluorescence, mean of three wells (compound at 10, reading M43 of time course): 3.271
Th-T fluorescence, mean of three wells (compound at 10, reading M44 of time course): 3.34
Th-T fluorescence, mean of three wells (compound at 10, reading M45 of time course): 3.373
Th-T fluorescence, mean of three wells (compound at 10, reading M46 of time course): 3.378
Th-T fluorescence, mean of three wells (compound at 10, reading M47 of time course): 3.37
Th-T fluorescence, mean of three wells (compound at 10, reading M48 of time course): 3.386
Th-T fluorescence, mean of three wells (compound at 10, reading M49 of time course): 3.382
Th-T fluorescence, mean of three wells (compound at 10, reading M50 of time course): 3.418
Th-T fluorescence, mean of three wells (compound at 10, reading M51 of time course): 3.408
Th-T fluorescence, mean of three wells (compound at 10, reading M52 of time course): 3.423
Th-T fluorescence, mean of three wells (compound at 10, reading M53 of time course): 3.4353
Th-T fluorescence, mean of three wells (compound at 10, reading M54 of time course): 3.443
Th-T fluorescence, mean of three wells (compound at 10, reading M55 of time course): 3.439
Th-T fluorescence, mean of three wells (compound at 10, reading M56 of time course): 3.46
Th-T fluorescence, mean of three wells (compound at 10, reading M57 of time course): 3.454
Th-T fluorescence, mean of three wells (compound at 10, reading M58 of time course): 3.457
Th-T fluorescence, mean of three wells (compound at 10, reading M59 of time course): 3.451
Th-T fluorescence, mean of three wells (compound at 10, reading M60 of time course): 3.452
Th-T fluorescence, mean of three wells (compound at 10, reading M61 of time course): 3.431
Th-T fluorescence, mean of three wells (compound at 10, reading M62 of time course): 3.428
Th-T fluorescence, mean of three wells (compound at 20, reading M41 of time course): 2.229
Th-T fluorescence, mean of three wells (compound at 20, reading M42 of time course): 2.216
Th-T fluorescence, mean of three wells (compound at 20, reading M43 of time course): 2.22
Th-T fluorescence, mean of three wells (compound at 20, reading M44 of time course): 2.199
Th-T fluorescence, mean of three wells (compound at 20, reading M45 of time course): 2.1759
Th-T fluorescence, mean of three wells (compound at 20, reading M46 of time course): 2.17
Th-T fluorescence, mean of three wells (compound at 20, reading M47 of time course): 2.178
Th-T fluorescence, mean of three wells (compound at 20, reading M48 of time course): 2.1654
Th-T fluorescence, mean of three wells (compound at 20, reading M49 of time course): 2.1539
Th-T fluorescence, mean of three wells (compound at 20, reading M50 of time course): 2.1392
Th-T fluorescence, mean of three wells (compound at 20, reading M51 of time course): 2.1473
Th-T fluorescence, mean of three wells (compound at 20, reading M52 of time course): 2.131
Th-T fluorescence, mean of three wells (compound at 20, reading M53 of time course): 2.116
Th-T fluorescence, mean of three wells (compound at 20, reading M54 of time course): 2.151
Th-T fluorescence, mean of three wells (compound at 20, reading M55 of time course): 2.154
Th-T fluorescence, mean of three wells (compound at 20, reading M56 of time course): 2.133
Th-T fluorescence, mean of three wells (compound at 20, reading M57 of time course): 2.135
Th-T fluorescence, mean of three wells (compound at 20, reading M58 of time course): 2.143
Th-T fluorescence, mean of three wells (compound at 20, reading M59 of time course): 2.117
Th-T fluorescence, mean of three wells (compound at 20, reading M60 of time course): 2.117
Th-T fluorescence, mean of three wells (compound at 20, reading M61 of time course): 2.0819
Th-T fluorescence, mean of three wells (compound at 20, reading M62 of time course): 2.098
Th-T fluorescence, mean of three wells (compound at 50, reading M41 of time course): 1.5174
Th-T fluorescence, mean of three wells (compound at 50, reading M42 of time course): 1.513
Th-T fluorescence, mean of three wells (compound at 50, reading M43 of time course): 1.502
Th-T fluorescence, mean of three wells (compound at 50, reading M44 of time course): 1.5
Th-T fluorescence, mean of three wells (compound at 50, reading M45 of time course): 1.494
Th-T fluorescence, mean of three wells (compound at 50, reading M46 of time course): 1.488
Th-T fluorescence, mean of three wells (compound at 50, reading M47 of time course): 1.489
Th-T fluorescence, mean of three wells (compound at 50, reading M48 of time course): 1.494
Th-T fluorescence, mean of three wells (compound at 50, reading M49 of time course): 1.481
Th-T fluorescence, mean of three wells (compound at 50, reading M50 of time course): 1.475
Th-T fluorescence, mean of three wells (compound at 50, reading M51 of time course): 1.492
Th-T fluorescence, mean of three wells (compound at 50, reading M52 of time course): 1.492
Th-T fluorescence, mean of three wells (compound at 50, reading M53 of time course): 1.469
